“Also recorded” adds a separate entry of the source.
Assays:
OCT1 Phe244Ala variant [1] = target: T1, OCT1 Phe244Ala variant (Homo sapiens, UniProt O15245, F244A); experiment: Inhibition of (R,S)-ethambutol uptake, HEK293 cells overexpressing OCT1 Phe244Ala; details: for Inhibition of the Phe244Ala mutant compared to the WT transporter (screening): 20 μM inhibitor, 2 μM (R,S)-ethambutol, 5 min
T1 sequence (O15245 1-554 F244A): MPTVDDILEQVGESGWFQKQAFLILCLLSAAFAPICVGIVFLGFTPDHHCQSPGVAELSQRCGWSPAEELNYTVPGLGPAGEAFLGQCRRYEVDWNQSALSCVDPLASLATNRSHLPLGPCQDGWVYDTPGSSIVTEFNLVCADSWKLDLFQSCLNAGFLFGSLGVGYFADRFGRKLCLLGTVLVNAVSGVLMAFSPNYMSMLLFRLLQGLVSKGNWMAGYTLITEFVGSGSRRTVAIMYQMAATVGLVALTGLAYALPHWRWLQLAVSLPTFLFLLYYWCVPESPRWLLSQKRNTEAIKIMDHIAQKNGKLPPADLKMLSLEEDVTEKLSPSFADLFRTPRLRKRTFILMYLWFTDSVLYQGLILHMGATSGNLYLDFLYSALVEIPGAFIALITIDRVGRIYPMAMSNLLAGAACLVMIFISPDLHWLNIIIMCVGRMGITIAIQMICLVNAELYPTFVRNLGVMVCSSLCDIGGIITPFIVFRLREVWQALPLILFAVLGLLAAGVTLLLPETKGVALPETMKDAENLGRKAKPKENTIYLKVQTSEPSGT
Protocol: (§1) For cellular inhibition experiments, 300,000 HEK293 cells were plated in poly-D-lysine precoated 24 well plates 48 h in advance. To study transporter inhibition, cells were incubated with 2 μM (R,S)-ethambutol with and without 20 μM inhibitor both dissolved in HBSS+.
(§2) In inhibition experiments, transporter activity was calculated as it follows: %OCT1activity=[Substrateinhibited]−[SubstrateEV]/[Substratenon−inhibited]−[SubstrateEV]
(§3) Substrateinhibited is the uptake of ethambutol into transporter-overexpressing cells in presence of an inhibitor, whereas substratenon-inhibited refers to the ethambutol uptake without coincubation with an inhibitor. SubstrateEV refers to the ethambutol uptake into empty vector–transfected control cells. Percent inhibition values where then calculated as in the following: %transporterinhibition=100%−transporteractivity In concentration-dependent inhibition experiments, the transporter activity was plotted against the log10 of inhibitor concentrations. The data was then analyzed by the following formula to determine IC50 values: Y=Ymin+(Ymax−Ymin)/1+10^log10(IC50−x)∙hillslope
(§4) Y describes the transporter activity, whereas Ymax is to the maximum and Ymin to the minimal transporter activity. X refers to the log10 of inhibitor concentrations, IC50 characterizes the half-maximal inhibitory concentration, and hill slope describes the slope factor.

OCT1 Phe244Ala variant [2] = target: T1, OCT1 Phe244Ala variant; experiment: cell-based
Protocol: as §1, §2, §3, §4

OCT1 WT [3] = target: T2, OCT1 WT (Homo sapiens, UniProt O15245); experiment: cell-based
T2 sequence (O15245 1-554): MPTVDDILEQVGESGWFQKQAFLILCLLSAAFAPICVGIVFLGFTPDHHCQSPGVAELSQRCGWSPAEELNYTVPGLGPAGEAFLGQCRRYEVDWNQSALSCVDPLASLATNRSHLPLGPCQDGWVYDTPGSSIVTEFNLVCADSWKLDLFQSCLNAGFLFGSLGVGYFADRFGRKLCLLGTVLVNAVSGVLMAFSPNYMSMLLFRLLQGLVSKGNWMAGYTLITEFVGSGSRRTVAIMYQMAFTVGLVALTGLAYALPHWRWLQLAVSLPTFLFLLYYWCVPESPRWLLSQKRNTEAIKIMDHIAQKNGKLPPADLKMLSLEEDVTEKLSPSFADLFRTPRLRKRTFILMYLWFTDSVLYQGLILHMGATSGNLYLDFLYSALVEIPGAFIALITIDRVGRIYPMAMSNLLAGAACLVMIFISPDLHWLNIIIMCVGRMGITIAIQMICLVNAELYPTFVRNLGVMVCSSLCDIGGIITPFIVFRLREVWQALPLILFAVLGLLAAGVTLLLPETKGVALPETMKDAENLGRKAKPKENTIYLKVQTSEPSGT
Protocol: as §1, §2, §3, §4

OCT1 Phe244Ala variant [4] = target: T1, OCT1 Phe244Ala variant; experiment: Stereoselective cell uptake of racemic substrates (chiral LC-MS/MS), OCT1 Phe244Ala variant; details: 2.5 μM racemic substance, 2 min
Protocol: Intracellular concentrations were quantified after chiral chromatography by mass spectrometry and are presented as mean ± SD of three independent experiments. […] Whenever the absolute steric conformation of the enantiomers was unknown, the enantiomers were termed according to their elution as enantiomer-1 (E1) and enantiomer-2 (E2).
(§5) For uptake studies, 300,000 HEK293 cells were plated in each well of 24-well plates precoated with poly-D-lysine 48 prior to the experiment. On the day of the experiment, cells were washed once with prewarmed to 37 °C HBSS+ (Hank’s balanced salt solution supplemented with 10 mM Hepes, both Sigma-Aldrich). […] Uptake was stopped by adding ice-cold HBSS+ and cells were washed twice with ice-cold buffer before cell lysis was done using 80% acetonitrile containing an appropriate internal standard for eventual mass spectrometry. Relative quantification was done by comparison of transporter-overexpressing cells to empty vector–transfected controls. For uptake kinetic experiments, cells were incubated with increasing concentrations of substrate dissolved in HBSS+. Absolute quantification was done later by comparison to a standard curve in lysis buffer with known concentration.
Chromatography was carried out with in reversed-phase mode with an aqueous mobile phase buffered with ammonium acetate and supplemented with 2-propanol or methanol as organic modifiers (Table S2). Order of elution of enantiomers was obtained either by reference literature ([28], [29], [30], [31], [32], [33]) or by injecting single enantiomers. Whenever there was no information available, the first eluting enantiomer was referred to as E1 and the second as E2.
(§6) Transport ratios were determined as relative fold-increase of the uptake in transporter-overexpressing cells over empty vector–transfected control cells. For transport kinetic experiments, absolute substrate quantification was done by signal comparison to a standard curve with known concentrations. Net uptake was then determined by subtracting the uptake into empty vector–transfected cells from transporter-overexpressing cells. […] Vmax defines the maximum transport velocity, Km refers to the substrate concentration required to reach half vmax. The intrinsic clearance Clint is the ratio of vmax over Km.

OCT1 WT [5] = target: T2, OCT1 WT; experiment: Uptake screening (transport ratio over empty vector), HEK293 cells overexpressing OCT1 WT; type: cell-based; set-up: expressed in transfected cells; details: uptake ratio of OCT1 WT-overexpressing HEK293 cells over empty vector;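 further: intracellular substrate levels quantified by HPLC–tandem mass spectrometry after uptake in HBSS+ buffer at 37 °C, stable Flp-In HEK293 lines, fold change versus empty vector–transfected cells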
OCT1 Phe244Ala variant [6] = target: T1, OCT1 Phe244Ala variant; experiment: Uptake screening (transport ratio over empty vector), HEK293 cells overexpressing OCT1 Phe244Ala variant; type: cell-based; set-up: expressed in transfected cells; details: for relative_Phe244Ala_uptake_in%: Phe244Ala uptake relative to OCT1 WT; for Mean_transport_ratio_Phe244Ala: uptake ratio of OCT1 Phe244Ala-overexpressing HEK293 cells over empty vector;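 on all read-outs here: stably transfected HEK293 cells, intracellular substrate quantified by HPLC-tandem mass spectrometry in cell lysates, uptake in HBSS+ buffer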
Protocol: (§7) All experiments were carried out using transporter-overexpressing HEK293 cells. […] Cells were cultivated in Dulbecco’s Modified Eagle’s medium supplemented with 10% fetal calf serum, 100 U/ml penicillin, and 100 μg/ml streptomycin. Cells were passaged twice a week and kept in culture for no longer than 30 passages.
as §5
(§8) Intracellular drug concentrations were detected and quantified by HPLC coupled to mass spectrometry. […] Substance-specific conditions were used to adjust the retention times of the analytes.
as §6

OCT1 Phe244Ala variant [7] = target: T1, OCT1 Phe244Ala variant; experiment: Concentration-dependent uptake kinetics, HEK293 cells overexpressing OCT1 Phe244Ala;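 further: cells exposed to rising substrate concentrations in buffer, intracellular drug measured by HPLC-tandem mass spectrometry, quantified against a standard curve, uptake referenced to empty vector-transfected HEK293 controls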
Protocol: as §7, §5, §8, §6

OCT1 WT [8] = target: T2, OCT1 WT; experiment: Concentration-dependent uptake kinetics, HEK293 cells overexpressing OCT1 WT; details: OCT1 WT; ratio of vmax over Km
Protocol: as §7, §5, §8, §6

Compound | Inhibition of the Phe244Ala mutant compared to the WT transporter (screening) (OCT1 Phe244Ala variant [1]) | Fold difference of inhibitory potency between WT and Phe244Ala (OCT1 Phe244Ala variant [1]; IC50 comparison, (R,S)-ethambutol uptake) [fold] | IC50 (OCT1 Phe244Ala variant [2]) [µM] | IC50 (OCT1 WT [3]) [µM] | Stereoselectivity of Phe244Ala variant compared to WT (OCT1 Phe244Ala variant [4]) | Mean_transport_ratio_WT (OCT1 WT [5]) | relative_Phe244Ala_uptake_in% (OCT1 Phe244Ala variant [6]) [%] | Mean_transport_ratio_Phe244Ala (OCT1 Phe244Ala variant [6]) | Clint (OCT1 Phe244Ala variant [7]; OCT1 Phe244Ala, ratio of vmax over Km) | Km, Phe244Ala compared to WT (OCT1 Phe244Ala variant [7]; uptake kinetics, in words) | Maximum transport capacity (vmax), Phe244Ala compared to WT (OCT1 Phe244Ala variant [7]; uptake kinetics, in words) | Clint (OCT1 WT [8]) | Transport activity of Phe244Ala in % of WT activity (OCT1 Phe244Ala variant [6]; 2.5 μM substrate, 2 min, Phe244Ala uptake relative to WT) [%]
Clc1cccc(Cl)c1N=C1NCCN1 [Clonidine] | strongly reduced inhibition | 21 | 34.3 | 1.62 | – | – | – | – | – | – | – | – | –
CC(Cc1ccc(O)cc1)NCC(O)c1cc(O)cc(O)c1 (centres unmarked) [Fenoterol] | – | – | 5.53 | 0.541 | opposite stereoselectivities; also recorded: only one enantiomer of the racemic mixtures showed altered transport | – | – | – | – | – | – | – | –
CN[C@@H]1CCc2[nH]c3ccc(C(N)=O)cc3c2C1 [Frovatriptan] | – | – | – | – | opposite stereoselectivities; also recorded: only one enantiomer of the racemic mixtures showed altered transport | 22.068 | 43.181 | 10.097 | – | – | – | – | –
CN(C)CCc1ccc(O)cc1 [Hordenine] | strongly reduced inhibition | – | 53.2 | 3 | – | 2.424 | 11.246 | 1.16 | – | – | – | – | –
COc1cc(CCN)cc(OC)c1OC [Mescaline] | strongly reduced inhibition | – | – | – | – | 5.297 | 16.381 | 1.704 | 0.91 ± 2.50 ml × g Protein^−1 × min^−1 | higher apparent affinity Km and transport capacity vmax for the WT transporter than the Phe244Ala variant | higher apparent affinity Km and transport capacity vmax for the WT transporter than the Phe244Ala variant | 4.84 ± 2.55 ml × g Protein^−1 × min^−1 | ~10

From publication PMC11602988 (The Journal of Biological Chemistry, 2024)
